Each block holds one molecule with its values, some of them ahead of it.
Experiments:
Experiment in all cases: Cell proliferation assay (Alamar Blue)
Type in all cases: cell-based
[1] = system: 22RV1; settings: 22RV1 tumor cell line, 6 days culture
Method: (§1) 1. Instruments and Materials • Thermo 311 CO2 incubator; Haier biosafety cabinet; Molecular Devices microplate reader; Xiangyi brand L530 desktop low speed centrifuge; Olympus IX51 inverted fluorescence microscope, DMEM, RPMI 1640, MEM, DMEM/F12 1:1 medium, Fetal bovine serum, 0.25% trypsin solution, phosphate buffer (Thermo Fisher Shanghai Co., Ltd.); sigma dimethyl sulfoxide (DMSO), resazurin; 54 commercial tumor cell lines (including 26 liver cancer cell lines). Experimental drugs: compounds 1-12 and active drug Linifanib; chemotherapeutic drug Doxorubicin (HY-15142; Shanghai Qianyuan Biomedical Technology Co., Ltd.).
(§2) 2. Experimental Methods • 2.1 Cultivation of Different Cell Lines • 54 cell lines were cultured in a culture medium containing fetal bovine serum and placed in a 5% CO2 incubator at 37° C. for incubation. The cells were all grown in an adherent state, and the growth was observed under an inverted microscope, and subculture was performed when the cell confluence rate reached 80%-90%. The proportion and quantity of passage were determined by experimental needs. The ratio of subculture of this cell line was generally 1:2^˜1:3. • 2.2 Inhibition Effect on the Proliferation of Different Tumor Cell Lines • Cell test: 54 cell lines in logarithmic growth phase were inoculated in 96-well culture plates at 500^˜1×10^4/well (the optimal seeding density of each cell line was determined in pre-experiment), After incubating at 37° C. for 4 h in a 5% CO2 humidification incubator, added 10 μL of compounds 1-12 or Linifanib to each well, and tested 9 drug concentration gradients for each compound (diluted from the highest concentration of the test by 3.16 times). The solubility of each compound was different at a starting concentration of 100 or 30 μM, respectively. The QC reference compound Doxorubicin was added simultaneously to each cell line test, and the final drug concentrations were 10, 3.16, 1, 0.31, 0.1, 0.03, 0.01, 0.003, and 0.001 μM, respectively. In addition, a positive control group (100% inhibition) and a negative control group (0% inhibition) were set at the same time. The drug group was repeated for 2 wells per concentration, and the positive control group and the negative control group were repeated for 6 wells. After the culture was continued for 6 days in the incubator, AlamarBlue test operation was followed; • AlamarBlue test procedure: Incubated with 10 μL of AlamarBlue reagent per well for 1-4 h, shook for 1-2 min, MD microplate reader EX: 560 nm, EM: 590 nm wavelength to measure fluorescence, recorded the results, calculated the cell inhibition rate of the compound of the invention. Cell inhibition rate (%)=(A0% inhibition−A administration)/(A0% inhibition−A100% inhibition)×100%, and then using the method of nonlinear regression using GraphPad Prism 5.0 or MATILAB software (usually using four parameters) to graph and obtain a drug dose response curve to obtain an IC50 value of the compound of the present invention acting on a cancer cell line.

[2] = system: Alexander cells; settings: Alexander cells liver cancer cell line, 6 days culture
Method: as §1, §2

[3] = system: HEPG2; settings: HEPG2 liver cancer cell line, 6 days culture
Method: as §1, §2

[4] = system: HLF; settings: HLF liver cancer cell line, 6 days culture
Method: as §1, §2

[5] = system: HT55; settings: HT55 tumor cell line, 6 days culture
Method: as §1, §2

[6] = system: HUH1; settings: HUH1 liver cancer cell line, 6 days culture
Method: as §1, §2

[7] = system: HUH6; settings: HUH6 liver cancer cell line, 6 days culture
Method: as §1, §2

[8] = system: HUH7; settings: HUH7 liver cancer cell line, 6 days culture
Method: as §1, §2

[9] = system: JHH1; settings: JHH1 liver cancer cell line, 6 days culture
Method: as §1, §2

[10] = system: JHH2; settings: JHH2 liver cancer cell line, 6 days culture
Method: as §1, §2

[11] = system: JHH6; settings: JHH6 liver cancer cell line, 6 days culture
Method: as §1, §2

[12] = system: JHH7; settings: JHH7 liver cancer cell line, 6 days culture
Method: as §1, §2

[13] = system: K562; settings: K562 tumor cell line, 6 days culture
Method: as §1, §2

[14] = system: KASUMI-1; settings: KASUMI-1 (leukemia cells), 6 days culture
Method: as §1, §2

[15] = system: LC-2-ad; settings: LC-2-ad tumor cell line, 6 days culture
Method: as §1, §2

[16] = system: LNCAP-clone-FGC; settings: LNCAP-clone-FGC tumor cell line, 6 days culture
Method: as §1, §2

[17] = system: MFM-223; settings: MFM-223 tumor cell line, 6 days culture
Method: as §1, §2

[18] = system: MG63; settings: MG63 tumor cell line, 6 days culture
Method: as §1, §2

[19] = system: NCI-H1703; settings: NCI-H1703 (lung cancer cells), 6 days culture
Method: as §1, §2

[20] = system: NCI-H2170; settings: NCI-H2170 tumor cell line, 6 days culture
Method: as §1, §2

[21] = system: NCI-H526; settings: NCI-H526 tumor cell line, 6 days culture
Method: as §1, §2

[22] = system: NCI-H716; settings: NCI-H716 tumor cell line, 6 days culture
Method: as §1, §2

[23] = system: SK-HEP-1; settings: SK-HEP-1 liver cancer cell line, 6 days culture
Method: as §1, §2

[24] = system: SNU387; settings: SNU387 liver cancer cell line, 6 days culture
Method: as §1, §2

[25] = system: SNU761; settings: SNU761 liver cancer cell line, 6 days culture
Method: as §1, §2

[26] = system: SNU886; settings: SNU886 liver cancer cell line, 6 days culture
Method: as §1, §2

[27] = system: SW620; settings: SW620 tumor cell line, 6 days culture
Method: as §1, §2

[28] = system: T.T; settings: T.T tumor cell line, 6 days culture
Method: as §1, §2

IC50 [1]: > 100 µM
IC50 [3]: 9.53 µM
IC50 [6]: > 100 µM
IC50 [7]: > 100 µM
IC50 [8]: 42.2 µM
IC50 [13]: > 100 µM
IC50 [16]: 95.5 µM
IC50 [19]: 110 nM
IC50 [20]: 48 µM
IC50 [21]: > 100 µM
IC50 [22]: 41.6 µM
IC50 [23]: > 100 µM
IC50 [24]: > 100 µM
IC50 [25]: > 100 µM
IC50 [26]: 75.2 µM
IC50 [27]: 56.3 µM
Compound: Cc1ccc(F)c(NC(=O)Nc2ccc(-c3cccc4[nH]nc(NC(=O)CCCCCCCCCCCNC(=O)C[C@H](N)C(=O)N[C@@H](CCC(=O)O)C(=O)O)c34)cc2)c1 [Compound 7]
IC50 [2]: > 100 µM
IC50 [4]: 72.6 µM
IC50 [5]: > 100 µM
IC50 [9]: > 100 µM
IC50 [10]: > 100 µM
IC50 [11]: > 100 µM
IC50 [12]: 63.4 µM
IC50 [14]: 230 nM
IC50 [15]: 46.4 µM
IC50 [17]: 88.3 µM
IC50 [18]: > 100 µM
IC50 [28]: > 100 µM

IC50 ([1]; Homo sapiens, 144 h): > 100 µM
IC50 ([3]; Homo sapiens, 144 h): 11.5 µM
IC50 ([6]; Homo sapiens, HuH-1, 144 h): > 100 µM
IC50 ([7]; Homo sapiens, HuH-6, 144 h): > 100 µM
IC50 ([8]; Homo sapiens, Huh-7, 144 h): 65.4 µM
IC50 ([13]; Homo sapiens, 144 h): > 100 µM
IC50 ([16]; Homo sapiens, 144 h): > 100 µM
IC50 ([19]; Homo sapiens, 144 h): 190 nM
IC50 ([20]; Homo sapiens, 144 h): 75.3 µM
IC50 ([21]; Homo sapiens, 144 h): > 100 µM
IC50 ([22]; Homo sapiens, 144 h): 44.9 µM
IC50 ([23]; Homo sapiens, SK-HEP1, 144 h): > 100 µM
IC50 ([24]; Homo sapiens, SNU-387, 144 h): > 100 µM
IC50 ([25]; 144 h): > 100 µM
IC50 ([26]; SNU-886, 144 h): > 100 µM
IC50 ([27]; Homo sapiens, SW-620, 144 h): 65.3 µM
Compound: Cc1ccc(F)c(NC(=O)Nc2ccc(-c3cccc4[nH]nc(NC(=O)CCCCCCCCCCCNC(=O)C[C@H](N)C(=O)N[C@@H](CCC(=O)N[C@@H](CCC(=O)N[C@@H](CCC(=O)N[C@@H](CCC(=O)O)C(=O)O)C(=O)O)C(=O)O)C(=O)O)c34)cc2)c1 [Compound 8]
IC50 ([2]; 144 h): > 100 µM
IC50 ([4]; 144 h): > 100 µM
IC50 ([5]; Homo sapiens, 144 h): > 100 µM
IC50 ([9]; 144 h): > 100 µM
IC50 ([10]; JHH-2, 144 h): > 100 µM
IC50 ([11]; 144 h): > 100 µM
IC50 ([12]; 144 h): 94.9 µM
IC50 ([14]; Homo sapiens, 144 h): 390 nM
IC50 ([15]; Homo sapiens, 144 h): 82.4 µM
IC50 ([17]; Homo sapiens, 144 h): > 100 µM
IC50 ([18]; Homo sapiens, MG-63, 144 h): > 100 µM
IC50 ([28]; Homo sapiens, TT, 144 h): > 100 µM

Compound: Cc1ccc(F)c(NC(=O)Nc2ccc(-c3cccc4[nH]nc(NC(=O)CCCCCCCCCCCNC(=O)C[C@H](N)C(=O)N[C@@H](CCC(=O)N[C@@H](CCC(=O)N[C@@H](CCC(=O)N[C@@H](CCC(=O)N[C@@H](CCC(=O)N[C@@H](CCC(=O)N[C@@H](CCC(=O)N[C@@H](CCC(=O)N[C@@H](CCC(=O)O)C(=O)O)C(=O)O)C(=O)O)C(=O)O)C(=O)O)C(=O)O)C(=O)O)C(=O)O)C(=O)O)c34)cc2)c1 [Compound 9]
IC50 [1]: > 100 µM
IC50 [2]: > 100 µM
IC50 [3]: 33.6 µM
IC50 [4]: > 100 µM
IC50 [5]: > 100 µM
IC50 [6]: > 100 µM
IC50 [7]: > 100 µM
IC50 [8]: 88.5 µM
IC50 [9]: > 100 µM
IC50 [10]: > 100 µM
IC50 [11]: > 100 µM
IC50 [12]: > 100 µM
IC50 [13]: > 100 µM
IC50 [14]: 870 nM
IC50 [15]: > 100 µM
IC50 [16]: > 100 µM
IC50 [17]: > 100 µM
IC50 [18]: > 100 µM
IC50 [19]: 350 nM
IC50 [20]: > 100 µM
IC50 [21]: > 100 µM
IC50 [22]: 77.2 µM
IC50 [23]: > 100 µM
IC50 [24]: > 100 µM
IC50 [25]: > 100 µM
IC50 [26]: > 100 µM
IC50 [27]: > 100 µM
IC50 [28]: > 100 µM

— US11712434B2, “Compound having anti-cancer effect, and preparation method therefor and use thereof” (3D MEDICINES (BEIJING) CO., LTD., priority 2016, dated 2023)
